Test results taken from patent EP4745137A1 (Gluetacs Therapeutics (Shanghai) Co., Ltd., priority 2023, dated 2025).

Assays:
IKZF3 = target: T1, IKZF3 (Homo sapiens, UniProt Q96SW2+Q9UKT9); assay: Western-blot assay of substrate protein degradation in hPBMCs, IKZF3; format: cell-based; conditions: 24 hours of compound treatment
T1 construct: endogenous in cells; host or cells: hPBMCs (Milecell Biotechnologies)

WEE1 = target: T2, WEE1 (Homo sapiens, UniProt P30291+Q96SW2); assay: Western-blot assay of substrate protein degradation in hPBMCs, WEE1; format: cell-based; conditions: 24 hours of compound treatment
T2 construct: endogenous in cells; host or cells: hPBMCs (Milecell Biotechnologies)
T2 sequence (P30291 whole entry): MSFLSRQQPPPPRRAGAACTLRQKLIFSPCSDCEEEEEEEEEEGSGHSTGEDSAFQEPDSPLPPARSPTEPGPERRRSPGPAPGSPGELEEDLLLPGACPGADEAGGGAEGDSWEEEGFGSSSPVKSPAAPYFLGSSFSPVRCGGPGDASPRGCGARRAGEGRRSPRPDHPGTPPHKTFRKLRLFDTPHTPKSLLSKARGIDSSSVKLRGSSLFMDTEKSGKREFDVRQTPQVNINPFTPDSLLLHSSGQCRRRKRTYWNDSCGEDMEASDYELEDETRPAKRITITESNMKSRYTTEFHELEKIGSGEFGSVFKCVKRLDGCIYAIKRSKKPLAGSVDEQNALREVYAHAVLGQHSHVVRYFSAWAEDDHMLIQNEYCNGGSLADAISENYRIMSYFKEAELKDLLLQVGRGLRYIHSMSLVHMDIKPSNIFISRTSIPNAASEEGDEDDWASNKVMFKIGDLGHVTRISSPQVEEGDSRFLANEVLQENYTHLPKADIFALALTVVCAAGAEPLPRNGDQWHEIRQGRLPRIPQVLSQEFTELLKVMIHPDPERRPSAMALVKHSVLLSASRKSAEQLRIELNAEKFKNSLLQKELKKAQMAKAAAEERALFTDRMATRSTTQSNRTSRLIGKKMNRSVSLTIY
T2 sequence (Q96SW2 whole entry): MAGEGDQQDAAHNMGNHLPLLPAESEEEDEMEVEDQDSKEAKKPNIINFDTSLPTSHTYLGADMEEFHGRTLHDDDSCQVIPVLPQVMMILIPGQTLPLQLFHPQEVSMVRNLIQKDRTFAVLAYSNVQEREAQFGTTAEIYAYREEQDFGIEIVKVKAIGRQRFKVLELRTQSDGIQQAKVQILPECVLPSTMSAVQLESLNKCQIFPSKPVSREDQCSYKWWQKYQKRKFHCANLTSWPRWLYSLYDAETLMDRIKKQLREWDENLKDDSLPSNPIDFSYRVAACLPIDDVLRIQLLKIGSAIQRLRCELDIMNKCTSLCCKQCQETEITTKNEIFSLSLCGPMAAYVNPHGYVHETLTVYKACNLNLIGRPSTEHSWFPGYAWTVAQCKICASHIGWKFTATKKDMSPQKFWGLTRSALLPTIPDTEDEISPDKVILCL
T2 sequence (Q16531 whole entry partner): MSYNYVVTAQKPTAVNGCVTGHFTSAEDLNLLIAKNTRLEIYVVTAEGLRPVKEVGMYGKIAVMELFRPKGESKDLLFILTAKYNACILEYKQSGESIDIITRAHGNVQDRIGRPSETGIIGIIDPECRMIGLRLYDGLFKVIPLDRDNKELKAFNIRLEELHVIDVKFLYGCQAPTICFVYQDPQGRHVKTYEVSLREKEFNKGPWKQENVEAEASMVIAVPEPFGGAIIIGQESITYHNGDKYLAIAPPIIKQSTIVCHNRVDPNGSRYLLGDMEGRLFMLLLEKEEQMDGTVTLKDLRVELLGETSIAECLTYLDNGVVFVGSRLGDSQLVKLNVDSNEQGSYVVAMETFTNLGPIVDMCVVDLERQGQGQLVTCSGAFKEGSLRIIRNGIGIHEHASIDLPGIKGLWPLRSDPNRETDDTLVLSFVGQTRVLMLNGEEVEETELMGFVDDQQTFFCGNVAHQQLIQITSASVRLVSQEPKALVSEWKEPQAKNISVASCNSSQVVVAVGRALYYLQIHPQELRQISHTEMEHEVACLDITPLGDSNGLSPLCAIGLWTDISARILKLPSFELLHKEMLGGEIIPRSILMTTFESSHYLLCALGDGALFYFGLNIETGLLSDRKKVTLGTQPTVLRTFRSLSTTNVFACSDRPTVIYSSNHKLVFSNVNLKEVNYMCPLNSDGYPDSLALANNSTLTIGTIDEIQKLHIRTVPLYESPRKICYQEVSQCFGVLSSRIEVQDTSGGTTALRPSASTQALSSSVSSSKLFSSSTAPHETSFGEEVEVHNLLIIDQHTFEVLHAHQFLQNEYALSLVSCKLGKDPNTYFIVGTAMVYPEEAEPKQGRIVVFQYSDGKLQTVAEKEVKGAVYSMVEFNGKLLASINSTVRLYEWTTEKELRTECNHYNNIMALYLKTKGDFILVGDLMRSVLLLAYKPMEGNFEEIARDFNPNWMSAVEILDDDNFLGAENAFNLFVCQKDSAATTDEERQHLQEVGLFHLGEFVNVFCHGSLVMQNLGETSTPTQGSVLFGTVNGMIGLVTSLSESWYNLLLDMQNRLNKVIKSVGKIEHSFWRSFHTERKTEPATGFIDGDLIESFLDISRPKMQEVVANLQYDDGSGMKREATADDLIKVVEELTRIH

[1] = target: T3, human Cereblon WT GST-tagged protein (Homo sapiens, UniProt Q96SW2); assay: CRBN-binding affinity by HTRF (CEREBLON BINDING kit); conditions: HTRF inhibitory activity, CEREBLON BINDING kit; read-out: HTRF IC50
T3 construct: purchased CISBIO 64BDCRBNPEH
T3 sequence (Q96SW2 whole entry): as the sequence (Q96SW2 whole entry) above

GSPT1 = target: T4, GSPT1 (Homo sapiens, UniProt P15170+Q96SW2); assay: Western-blot assay of substrate protein degradation in hPBMCs, GSPT1; format: cell-based; conditions: 24 hours of compound treatment
T4 construct: endogenous in cells; host or cells: hPBMCs (Milecell Biotechnologies)
T4 sequence (P15170 whole entry): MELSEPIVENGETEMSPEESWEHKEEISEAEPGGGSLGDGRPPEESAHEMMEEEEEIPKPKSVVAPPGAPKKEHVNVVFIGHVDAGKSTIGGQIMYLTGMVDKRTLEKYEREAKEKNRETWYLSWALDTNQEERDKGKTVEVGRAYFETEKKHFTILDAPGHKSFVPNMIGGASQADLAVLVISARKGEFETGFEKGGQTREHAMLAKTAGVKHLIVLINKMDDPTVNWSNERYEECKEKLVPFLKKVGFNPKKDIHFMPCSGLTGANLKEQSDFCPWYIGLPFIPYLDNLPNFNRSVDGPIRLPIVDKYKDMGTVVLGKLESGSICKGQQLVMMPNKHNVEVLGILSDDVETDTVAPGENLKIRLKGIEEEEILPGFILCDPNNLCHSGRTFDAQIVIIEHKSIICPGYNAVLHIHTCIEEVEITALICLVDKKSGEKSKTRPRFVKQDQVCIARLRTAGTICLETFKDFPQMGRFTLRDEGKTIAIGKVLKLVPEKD
T4 sequence (Q96SW2 whole entry): as the sequence (Q96SW2 whole entry) above
T4 sequence (Q16531 whole entry partner): as the sequence (Q16531 whole entry partner) above

CK1α = target: T5, CK1α (Homo sapiens, UniProt P48729+Q96SW2); assay: Western-blot assay of substrate protein degradation in hPBMCs, CK1α; format: cell-based; conditions: 24 hours of compound treatment
T5 construct: endogenous in cells; host or cells: hPBMCs (Milecell Biotechnologies)
T5 sequence (P48729 whole entry): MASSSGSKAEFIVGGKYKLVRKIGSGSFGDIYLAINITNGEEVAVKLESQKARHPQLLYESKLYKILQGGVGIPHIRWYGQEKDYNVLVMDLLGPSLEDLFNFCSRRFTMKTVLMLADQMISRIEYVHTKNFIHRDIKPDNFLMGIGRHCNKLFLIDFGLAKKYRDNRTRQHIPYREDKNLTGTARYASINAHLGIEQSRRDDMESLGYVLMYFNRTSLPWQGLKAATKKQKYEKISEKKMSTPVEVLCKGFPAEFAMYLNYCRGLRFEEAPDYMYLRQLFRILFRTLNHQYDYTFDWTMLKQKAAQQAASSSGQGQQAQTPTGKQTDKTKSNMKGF
T5 sequence (Q96SW2 whole entry): as the sequence (Q96SW2 whole entry) above
T5 sequence (Q16531 whole entry partner): as the sequence (Q16531 whole entry partner) above

IKZF2 = target: T6, IKZF2 (Homo sapiens, UniProt Q96SW2+Q9UKS7); assay: Western-blot assay of substrate protein degradation in hPBMCs, IKZF2; format: cell-based; conditions: 24 hours of compound treatment
T6 construct: endogenous in cells; host or cells: hPBMCs (Milecell Biotechnologies)
T6 sequence (Q9UKS7 whole entry): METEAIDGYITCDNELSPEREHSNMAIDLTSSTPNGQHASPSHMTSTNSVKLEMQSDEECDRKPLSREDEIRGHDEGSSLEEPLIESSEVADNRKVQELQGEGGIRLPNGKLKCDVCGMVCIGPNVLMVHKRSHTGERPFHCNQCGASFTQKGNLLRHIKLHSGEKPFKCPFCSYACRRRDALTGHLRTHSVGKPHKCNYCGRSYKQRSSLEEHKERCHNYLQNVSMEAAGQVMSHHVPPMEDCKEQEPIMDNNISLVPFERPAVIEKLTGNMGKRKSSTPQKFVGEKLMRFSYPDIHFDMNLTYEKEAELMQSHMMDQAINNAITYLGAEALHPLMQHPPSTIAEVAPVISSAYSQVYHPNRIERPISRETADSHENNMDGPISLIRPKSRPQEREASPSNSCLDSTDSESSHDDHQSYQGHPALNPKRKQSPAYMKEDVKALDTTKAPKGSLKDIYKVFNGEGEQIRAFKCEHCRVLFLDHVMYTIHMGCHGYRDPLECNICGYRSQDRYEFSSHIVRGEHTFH
T6 sequence (Q96SW2 whole entry): as the sequence (Q96SW2 whole entry) above
T6 sequence (Q16531 whole entry partner): as the sequence (Q16531 whole entry partner) above

IKZF1 = target: T7, IKZF1 (Homo sapiens, UniProt Q13422+Q96SW2); assay: Western-blot assay of substrate protein degradation in hPBMCs, IKZF1; format: cell-based; conditions: 24 hours of compound treatment
T7 construct: endogenous in cells; host or cells: hPBMCs (Milecell Biotechnologies)

[2] = compounds tested at 50 nM and 500 nM (concentration of the table not stated)
[3] = 50 nM and 500 nM tested (concentration behind the class not stated)

T1 sequence (Q9UKT9 whole entry): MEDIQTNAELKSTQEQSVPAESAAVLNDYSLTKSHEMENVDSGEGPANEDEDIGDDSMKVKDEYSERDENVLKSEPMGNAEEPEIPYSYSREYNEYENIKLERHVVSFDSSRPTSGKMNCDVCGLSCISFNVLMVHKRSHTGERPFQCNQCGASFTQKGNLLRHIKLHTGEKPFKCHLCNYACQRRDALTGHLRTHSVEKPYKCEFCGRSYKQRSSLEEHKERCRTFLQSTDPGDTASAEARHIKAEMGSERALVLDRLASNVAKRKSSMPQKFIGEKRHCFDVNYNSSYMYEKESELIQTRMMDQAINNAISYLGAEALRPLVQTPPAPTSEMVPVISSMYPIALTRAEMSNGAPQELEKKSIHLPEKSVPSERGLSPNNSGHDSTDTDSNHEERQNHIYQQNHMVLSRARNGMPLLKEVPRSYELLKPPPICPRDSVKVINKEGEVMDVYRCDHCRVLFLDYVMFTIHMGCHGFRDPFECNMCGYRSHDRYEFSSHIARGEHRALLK
T1 sequence (Q96SW2 whole entry): as the sequence (Q96SW2 whole entry) above
T1 sequence (Q16531 whole entry partner): as the sequence (Q16531 whole entry partner) above

Row | Compound | IKZF3 substrate protein remaining % (IKZF3; [2]) | Weel substrate protein remaining % (WEE1; [2]) | IC50 [1] [nM] | GSPT1 substrate protein remaining % (GSPT1; [2]) | CK1a substrate protein remaining % (CK1α; [2]) | IKZF2 substrate protein remaining % (IKZF2; [2]) | IKZF 1 substrate protein remaining % (IKZF1; [2]) | IKZF3 substrate protein remaining % (IKZF3; [3]) | Weel substrate protein remaining % (WEE1; [3]) | GSPT1 substrate protein remaining % (GSPT1; [3]) | CK1a substrate protein remaining % (CK1α; [3]) | IKZF2 substrate protein remaining % (IKZF2; [3]) | IKZF 1 substrate protein remaining % (IKZF1; [3])
1 | O=C1CCC(N2Cc3cc(CN4CCN(c5ncnc6ccsc56)CC4)ccc3C2=O)C(=O)N1 (stereo not drawn) [GT-04681, 3-(1-oxo-5-((4-(thieno[3,2-d]pyrimidin-4-yl)piperazin-1-yl)methyl)isoindolin-2-yl)piperidine-2,6-dione] | B (80%< substrate protein remaining %≤ 100%) | B (80%< substrate protein remaining %≤ 100%) | 500 to 1000 | A (0% ≤ substrate protein remaining % ≤ 80%) | A (0% ≤ substrate protein remaining % ≤ 80%) | B (80%< substrate protein remaining %≤ 100%) | B (80%< substrate protein remaining %≤ 100%) |  |  |  |  |  | 
2 | O=C1CCC(N2Cc3cc(CN4CCN(c5nsc6cc(F)ccc56)CC4)ccc3C2=O)C(=O)N1 (stereo not drawn) [GT-05332, 3-(5-((4-(6-fluorobenzo[d]isothiazol-3-yl)piperazin-1-yl)methyl)-1-oxoisoindolin-2-yl)piperidine-2,6-dione] | B (80%< substrate protein remaining %≤ 100%) | B (80%< substrate protein remaining %≤ 100%) | < 500 | B (80%< substrate protein remaining %≤ 100%) | B (80%< substrate protein remaining %≤ 100%) | A (0% ≤ substrate protein remaining % ≤ 80%) | B (80%< substrate protein remaining %≤ 100%) |  |  |  |  |  | 
3 | Cc1cc2c(C3=CCN(Cc4ccc5c(c4)C(=O)N(C4CCC(=O)NC4=O)C5=O)CC3)ncnc2s1 (stereo not drawn) [GT-06655, 2-(2,6-dioxopiperidin-3-yl)-5-((4-(6-methylthieno[2,3-d]pyrimidin-4-yl)-3,6-dihydropyridin-1(2H)-yl)methyl)isoindoline-1,3-dione] |  |  | 500 to 1000 |  |  |  |  | A (0% ≤ substrate protein remaining % ≤ 80%) | A (0% ≤ substrate protein remaining % ≤ 80%) | A (0% ≤ substrate protein remaining % ≤ 80%) | B (80%< substrate protein remaining %≤ 100%) | A (0% ≤ substrate protein remaining % ≤ 80%) | A (0% ≤ substrate protein remaining % ≤ 80%)
4 | Cc1sc2ncnc(C3=CCN(Cc4ccc5c(c4)C(=O)N(C4CCC(=O)NC4=O)C5=O)CC3)c2c1C (stereo not drawn) [GT-06657, 5-((4-(5,6-dimethylthieno[2,3-d]pyrimidin-4-yl)-3,6-dihydropyridin-1 (2H)-yl)methyl)-2-(2,6-dioxopiperidin-3-yl)isoindoline-1,3-dione] |  |  | 1000 to 1500 |  |  |  |  | B (80%< substrate protein remaining %≤ 100%) | A (0% ≤ substrate protein remaining % ≤ 80%) | A (0% ≤ substrate protein remaining % ≤ 80%) | B (80%< substrate protein remaining %≤ 100%) | B (80%< substrate protein remaining %≤ 100%) | A (0% ≤ substrate protein remaining % ≤ 80%)
5 | O=C1CCC(N2Cc3cc(CN4CC(C5CCOc6cc(F)ccc65)C4)ccc3C2=O)C(=O)N1 (stereo not drawn) [GT-04700, 3-(5-((3-(7-fluorochroman-4-yl)azetidin-1-yl)methyl)-1-oxoisoindolin-2-yl)piperidine-2,6-dione] | A (0% ≤ substrate protein remaining % ≤ 80%) | B (80%< substrate protein remaining %≤ 100%) | 500 to 1000 | A (0% ≤ substrate protein remaining % ≤ 80%) | B (80%< substrate protein remaining %≤ 100%) | A (0% ≤ substrate protein remaining % ≤ 80%) | A (0% ≤ substrate protein remaining % ≤ 80%) |  |  |  |  |  | 
6 | Cc1nc(N2CCN(Cc3ccc4c(c3)C(=O)N(C3CCC(=O)NC3=O)C4=O)CC2)c2c3c(sc2n1)CCC3 (stereo not drawn) [GT-06566, 2-(2,6-dioxopiperidin-3-yl)-5-((4-(2-methyl-6,7-dihydro-5H-cyclopenta[4,5]thieno[2,3-d]pyrimidin-4-yl)piperazin-1-yl)methyl)isoindoline-1,3-dione] |  |  | 500 to 1000 |  |  |  |  | A (0% ≤ substrate protein remaining % ≤ 80%) | A (0% ≤ substrate protein remaining % ≤ 80%) | A (0% ≤ substrate protein remaining % ≤ 80%) | A (0% ≤ substrate protein remaining % ≤ 80%) | A (0% ≤ substrate protein remaining % ≤ 80%) | A (0% ≤ substrate protein remaining % ≤ 80%)
7 | Cc1nc(C2CCN(Cc3ccc4c(c3)CN(C3CCC(=O)NC3=O)C4=O)CC2)c2c3c(sc2n1)CCCC3 (stereo not drawn) [GT-04993, 3-(5-((4-(2-methyl-5,6,7,8-tetrahydrobenzo[4,5]thieno[2,3-d]pyrimidin-4-yl)piperidin-1-yl)methyl)-1-oxoisoindolin-2-yl)piperidine-2,6-dione] | A (0% ≤ substrate protein remaining % ≤ 80%) | A (0% ≤ substrate protein remaining % ≤ 80%) | < 500 | A (0% ≤ substrate protein remaining % ≤ 80%) | A (0% ≤ substrate protein remaining % ≤ 80%) | A (0% ≤ substrate protein remaining % ≤ 80%) | A (0% ≤ substrate protein remaining % ≤ 80%) |  |  |  |  |  | 
8 | Cc1nc(N2CCN(Cc3ccc4c(c3)CN(C3CCC(=O)NC3=O)C4=O)CC2)c2c3c(sc2n1)CCC3 (stereo not drawn) [GT-05157, 3-(5-((4-(2-methyl-6,7-dihydro-5H-cyclopenta[4,5]thieno[2,3-d]pyrimidin-4-yl)piperazin-1-yl)methyl)-1-oxoisoindolin-2-yl)piperidine-2,6-dione] | A (0% ≤ substrate protein remaining % ≤ 80%) | B (80%< substrate protein remaining %≤ 100%) | < 500 | A (0% ≤ substrate protein remaining % ≤ 80%) | A (0% ≤ substrate protein remaining % ≤ 80%) | A (0% ≤ substrate protein remaining % ≤ 80%) | A (0% ≤ substrate protein remaining % ≤ 80%) |  |  |  |  |  | 
9 | O=C1CCC(N2C(=O)c3ccc(CN4CCN(c5ncnc6sc(Br)cc56)CC4)cc3C2=O)C(=O)N1 (stereo not drawn) [GT-06309, 5-((4-(6-bromothieno[2,3-d]pyrimidin-4-yl)piperazin-1-yl)methyl)-2-(2,6-dioxopiperidin-3-yl)isoindoline-1,3-dione] |  |  | 1500 to 1900 |  |  |  |  | A (0% ≤ substrate protein remaining % ≤ 80%) | B (80%< substrate protein remaining %≤ 100%) | B (80%< substrate protein remaining %≤ 100%) | B (80%< substrate protein remaining %≤ 100%) | A (0% ≤ substrate protein remaining % ≤ 80%) | A (0% ≤ substrate protein remaining % ≤ 80%)
